Assay results: a melting point compilation (Tetko et al.; mined from patent text by program, amines drawn as free bases though some values may be those of a salt)

SMILES | melting point
OCCNC(=S)Nc1cccc2ccoc12 | 138 to 139 °C
CCCN(CCC)C(=O)Cc1ccc(O)c([N+](=O)[O-])c1 | 55 to 57 °C
O=C(Cc1ccc2ccn(C3CCN(CCc4ccc(F)cc4)CC3)c2c1)NCC1OCCO1 | 118 to 119 °C
CCOC(=O)C1=C(Cl)/C(=N/OS(C)(=O)=O)CC(c2ccc(Cl)c(OC)c2F)N1 (stereo not drawn) | 60 to 62 °C
CC(=O)N1CCN=C1Nc1cccc2c1CCCC2 | 142 to 144 °C
COC(=O)C(Br)c1ccc2c(c1)OCO2 (stereo not drawn) | 39 to 41 °C
Cc1c(SCCCn2ccnc2)ccnc1CSc1ccncc1 | 117 to 119 °C
O=C1N(c2ccc(Br)cc2)C(Cl)(Cl)C2CCCCC12Cl (stereo not drawn) | 148 to 150 °C
COc1nc2cc(C)c(C)cc2nc1C(=O)O | 180 to 182 °C
O=C(O)C=CC=Cc1cc(O)c(O)cc1Cl | 203 to 206 °C
Cn1nc2n(c1=O)-c1ccc(Cl)nc1C(c1ccccc1Cl)=NC2 | 200 to 202 °C
CCOC(=O)N1CCN(CC2CSC3=C(O2)c2ccccc2C(=O)C3=O)CC1 (stereo not drawn) | 185 to 187 °C
CCOC(=O)CCC1=C(C#N)C(c2ccccc2Cl)c2c[nH]nc2N1 (stereo not drawn) | 172 to 174 °C
CC1=CC2c3cccc4[nH]c(SC(C)C)c(c34)CC2N(C)C1 (stereo not drawn) | 145 to 147 °C
CO[C@]12C[C@@H](CN3CCC(O)(c4ccc(Cl)c(C(F)(F)F)c4)CC3)CN(C)[C@@H]1Cc1c[nH]c3cccc2c13 | 143 to 146 °C
CCN(CC)S(=O)(=O)c1ccc2[nH]c(-c3c(C)c(Cl)cc(C(C)(C)C)c3O)nc2c1 | 277 to 278 °C

SMILES | melting point
C=CCNC(=O)CC(=O)C=Cc1ccccc1[N+](=O)[O-] | 128 to 129 °C
Cc1cn(-c2cc3c(cc2C(F)(F)F)[nH]c(=O)c2n[nH]c(=O)n23)c(C)n1 | > 330 °C
CC(COC1CCCCO1)C1CCC2C3CC=C4CC(O)CC(O)C4(C)C3CCC12C (stereo not drawn) | 138 to 141 °C
FC(F)(F)c1nc2cc(Cl)c(Cl)cc2[nH]1 | 225 to 230 °C
CC(C)Cc1nc2sc3c(NCc4cccnc4)ncnc3c2c2c1COC(C)(C)C2 | 244 to 245 °C
C#CC1(O)CCC2C3CCC4=CC(=O)CCC4C3CCC21CCC (stereo not drawn) | 149 to 150 °C
CC(=O)CCCCCCCc1ccc(O)c(O)c1 | 73 to 75 °C
Cc1cc(C)nc(NC(=O)NS(=O)(=O)c2cccc3c2CCCC3)n1 | 152 to 155 °C
NC(=O)[C@H]1CCC[C@H]1C(=O)O (relative stereo) | 132 to 133 °C
CC(=O)Nc1nc(NCC(O)CO)c(Cl)nc1[N+](=O)[O-] (stereo not drawn) | 130 to 131 °C
Cc1[nH]c2ccccc2c1CCN1CCC(Oc2ccc(F)cc2)CC1 | 97 to 99 °C
CCc1cnc(N2CCN(C(=O)OC(C)(C)C)CC2)nc1 | 67 to 68 °C
Cc1cc(C#N)cc(C)c1Oc1nc(Nc2ccc(C#N)cc2)nc(C)c1Br | 260 to 262 °C
O=C1c2ccccc2C(=O)N1OCF | 126 to 127 °C
CCCn1c(COCC)nc2c(N)nc3ccc(OC4CCN(C(=O)NC(C)C)CC4)cc3c21 | 236 to 239 °C
CNCC1(C2(O)CCCC2)Cc2cc3sccc3cc21 (stereo not drawn) | 166 to 169 °C

Continued, values first:

melting point | SMILES
117 to 119 °C | O=C(Nc1ccccc1)N1CCN=C1CSc1ccccc1
99 to 100 °C | CC(C)(C)c1cc(CCc2ccccc2NC(=O)NC2CCN(Cc3cccc(F)c3)CC2)cc(C(C)(C)C)c1O
236 to 237 °C | Nc1ccc(S(=O)(=O)c2cc(-c3ccc(Cl)cc3)nc(N3CCCC3)c2)cc1
67 to 68.5 °C | CCOC(=O)C(CC(=O)c1ccc(Oc2ccc(Br)cc2)cc1)SC(C)=O (stereo not drawn)
82 to 84 °C | O=C(Oc1ccc(OC(=O)c2ccccc2)c(-c2ccccc2)c1)c1cc(O)c(O)c(O)c1
118 to 120 °C | OC1(c2ccccc2Cc2ccccc2)CCN(CC2CC2)C1 (stereo not drawn)
210 to 211 °C | O=C(Cc1ccccc1C(=O)O)Nc1cccc(/C=C/c2nc(C3CCCCC3)cs2)c1
114 to 116 °C | COC(=O)C(Cc1ccc([N+](=O)[O-])c(OCc2ccccc2)c1)(NC(=O)OC(C)(C)C)C(=O)OC
185 to 186 °C | O=C1c2ccc(-n3ncc4ccccc43)cc2CCN1CCN1CCCC1
223 to 225 °C | CS(=O)(=O)c1ccc(-n2nc(C(F)(F)F)cc2-c2ccc(-c3ccco3)cc2F)cc1
> 300 °C | CC(C)(C)OC(=O)CC[C@H](NC(=O)c1ccc(C=Cc2cnc3nc(N)nc(N)c3c2)cc1)C(=O)OC(C)(C)C
207 to 210 °C | NS(=O)(=O)c1ccc(CCN2CCC(N3CCc4ccccc43)CC2)cc1
267 °C | NS(=O)(=O)c1cccc(-c2cccc(-c3nc(-c4ccc(C(F)(F)F)cc4)cc(C(F)(F)F)n3)c2)c1
165 to 167 °C | O=C(O)COc1ccc2c(c1)-c1nc(SCC(c3ccccc3)c3ccccc3)sc1CC2
174 to 178 °C | O=C(O)CCc1ccc2c(c1)oc1ccc(Cl)cc12
162 to 164 °C | CCOC(=O)CCCOc1ccc(C(=O)Nc2ccccc2Oc2ccccc2-c2nnn[nH]2)cc1
204 to 206 °C | O=c1nc(Cc2ccccc2)nc2n(C3CCCC3)[nH]c(Cc3ccccc3)c1-2
177 to 178 °C | O=C(Oc1ccc(Cl)c2c(=O)c3ccccc3sc12)c1ccccc1

melting point | SMILES
119 to 120 °C | COCNC(=O)c1c(-c2ccc(Cl)cc2)nsc1-c1ccccc1
228 to 230 °C | COc1ccc(C(=O)Nc2ccc(F)c(F)c2)cc1NS(=O)(=O)c1ccc(C#N)cc1
98 to 100 °C | COc1ccc(CSC2=NC(c3cccc(Cl)c3Cl)C(C(=O)OC(C)C)=C(C)N2)cc1 (stereo not drawn)
164 to 166 °C | O=S(=O)(Nc1cccnc1Nc1ccccc1)c1ccc(Oc2ccccc2)cc1
81 to 83 °C | CCOC(=O)CC(C(=O)c1ccccc1)C(=O)c1ccccc1
115 °C | C[C@H](NC(C#N)CCc1ccccc1)C(=O)O (stereo partly drawn)
236 to 238 °C | Cc1nc(-c2cccc(C(=O)O)c2)nn1-c1cccc(F)c1
79 to 81 °C | O=C(CCl)Nc1ccccc1C(=O)c1ccccc1C(F)(F)F
135 to 137 °C | O=Cc1cc(-c2ccccc2)nn1Cc1ccc(Cl)cc1Cl
139 to 145 °C | N#CCCNC(=O)c1cccc(-c2ccc3c(c2)C(Oc2ccc(Cl)cc2Cl)CC3)c1 (stereo not drawn)
> 260 °C | COc1ccc(F)c(-n2c(=O)[nH]c3c(C(N)=O)nc(-c4cccc(O)c4)nc32)c1
99 to 100 °C | CCCCNC(=O)Oc1ccc(C(O)(CC)c2cccc(C(F)(F)F)c2)cc1 (stereo not drawn)
280 to 284 °C | O=c1[nH]ncc2[nH]c(-c3ccc(OC(F)F)c(OC4CCC4)c3)c(-c3ccccc3)c12
> 250 °C | O=C(O)Cn1c(=O)c(=O)[nH]c2ccc3ccc(-n4ccc(CN5CCN(C(c6ccccc6)c6ccccc6)CC5)c4)cc3c21
104 to 106 °C | CN(C)CC1CC(c2ccc(S(C)(=O)=O)cc2)=C(c2cc(F)cc(F)c2)C1=O (stereo not drawn)
164 to 165 °C | CCc1ccc(-c2ccc3c(c2)C=C(C(=O)Nc2ccc(CN(C)C4CCOCC4)cc2)CCN3C)cc1
113 to 115 °C | COc1ccc(Cl)cc1C(=O)CCC(=O)O
128 to 130 °C | CN(Cc1cc(C(F)(F)F)cc(C(F)(F)F)c1)C(=O)c1nc(NCc2ccccc2)ncc1-c1ccccc1
